Reference: US20210147571A1, “MONOCLONAL ANTIBODY TARGETING HUMAN TUMOR STEM CELLS AND USE THEREOF” (Suzhou Bojuhua Biomedical Technology Co. Ltd, priority 2017, published 2021)

Columns and labels:
[1] = test system: SPCA-1 transplanted tumor; assay: human lung cancer transplanted tumor treated with Hetumomab; format: in vivo, nude mice; conditions: cisplatin 0.3 mg/kg, day 28
Experimental: Specifically, the sphere cells of the human lung cancer cell line SPCA-1 were harvested and inoculated in nude mice at 2.5×10^5 cells/mouse. The mice were divided into following 5 groups, with 5 mice in each group: the PBS control group; the chemotherapy group (cisplatin 0.3 mg/kg); the high dose antibody Hetumomab group (40 mg/kg); the medium dose antibody Hetumomab group (10 mg/kg); and the low dose Hetumomab group (2.5 mg/kg). The antibody treatment was started on the second day after inoculation of lung cancer cells. The experimental groups and the control group were treated by intraperitoneal injection. The treatments were performed for 28 days after inoculation. The chemotherapeutic drug group was treated twice a week. The major and minor diameters of the subcutaneously transplanted tumors were measured twice a week. The tumor volume was calculated with the formula V=(π/6)×(major diameter×minor diameter×minor diameter). The change in tumor volume in each group was observed.

[2] = test system: SPCA-1 cells; assay: CCK8 drug resistance (cisplatin IC50) of flow-sorted cells; format: cell-based, human
Experimental: In order to detect the drug resistance of Hetumomab^+ lung cancer cells, Hetumomab^+ cells, parental cells and Hetumomab^− cells obtained by flow sorting sphere cells of human lung cancer cells SPCA-1 were seeded at 5000 cells/well in a 96-well plate. […] Therefore, Hetumomab^+ lung cancer cells have stronger chemotherapeutic drug resistance than the parental cells and Hetumomab^− cells.

[3] = test system: Bel7402-V13 transplanted tumor; assay: human liver cancer transplanted tumor treated with Hetumomab; format: in vivo, nude mice; conditions: cisplatin 0.3 mg/kg
Experimental: Bel7402-V13 sphere cells were inoculated subcutaneouly to nude mice at 30,000 cells/mouse. The nude mice were randomly divided into 6 groups (6 per group) as follows: the chemotherapy group (0.3 mg/kg cisplatin, 6 mice); the high dose antibody group (10 mg/kg, 6 mice); the high dose antibody+chemotherapy group (6 mice); the low dose antibody group (2.5 mg/kg, 6 mice); the low dose antibody+chemotherapy group (6 mice); and the PBS group (6 mice). The treatments were started the next day after the cells were inoculated, twice a week, and terminated after 5 weeks. The major and minor diameters of the subcutaneously transplanted tumor were measured twice a week. The tumor volume was calculated with the formula V=(π/6)×(major diameter×minor diameter×minor diameter), and the changes in tumor volume and growth rate of each group were observed. […] Tumor growth rate=(Vt−V0)/number of days, where Vt is the tumor volume at each measurement, and V0 is the tumor volume […] ([…]).

[4] = test system: SNU-5 transplanted tumor; assay: human gastric cancer transplanted tumor treated with Hetumomab; format: in vivo, nude mice; conditions: cisplatin 0.3 mg/kg, one month
Experimental: Specifically, the sphere cells of the human gastric cancer cell line SNU-5-V13 were harvested and inoculated in nude mice at 2.5×10^5 cells/mouse. The mice were divided into following 7 groups, with 8 mice in each group: the PBS control group; the mouse IgG control group; the chemotherapy group (cisplatin 0.3 mg/kg); the high dose antibody Hetumomab group (20 mg/kg); the low dose Hetumomab group (1.25 mg/kg); the high dose Hetumomab+chemotherapeutic drug group; and the low dose Hetumomab+chemotherapeutic drug group. The antibody treatment was started on the second day after inoculation of gastric cancer cells.
The experimental groups and the control group were treated by intraperitoneal injection. The treatments were performed for one month. The chemotherapeutic drug group was treated for 4 weeks, twice a week. The major and minor diameters of the subcutaneously transplanted tumor were measured twice a week. The tumor volume was calculated with the formula V=(π/6)×(major diameter×minor diameter×minor diameter). The change in tumor volume in each group was observed.

[5] = test system: Bel7402-V13 transplanted tumor; assay: human liver cancer transplanted tumor treated with Hetuzumab H5L11; format: in vivo, nude mice; conditions: cisplatin 0.3 mg/kg, day 36
Experimental: Specifically, the sphere cells of the human liver cancer cell line Bel7402-V13 were harvested and inoculated subcutaneouly into nude mice at 30000 cells/mouse. […] The antibody treatments were started on the second day after inoculation of cancer cells. The experimental group and the control group were treated by intraperitoneal injection. The antibody treatments were performed for 36 days. The chemotherapeutic drug group was treated for 4 weeks, twice a week. The major and minor diameters of the subcutaneously transplanted tumor were measured twice a week. The tumor volume was calculated with the formula V=(π/6)×(major diameter×minor diameter×minor diameter). The change in tumor volume in each group was observed.

[6] = test system: Bel7402-V13 cells; assay: CCK8 drug resistance (cisplatin IC50) of flow-sorted cells; format: cell-based, human
Experimental: In order to detect the drug resistance of Hetumomab^+ liver cancer cells, Hetumomab^+ cells, parental cells and Hetumomab^− cells obtained by flow sorting sphere cells of human liver cancer cells Bel7402-V13 were seeded at 5000 cells/well in a 96-well plate. Each group of cells was cultured in a complete medium containing 8 different concentrations, i.e., 0 μg/mL, 0.0625 μg/mL, 0.125 μg/mL, 0.25 μg/mL, 0.5 μg/mL, 1 μg/mL, 2 μg/mL, and 4 μg/mL, of cisplatin. The medium was changed once every 3 days, and after 7 days, the OD value was measured by the CCK8 method to determine the IC50 reflecting drug resistance. […] Therefore, Hetumomab^+ liver cancer cells have stronger chemotherapeutic drug resistance than the parental cells and Hetumomab^− cells.

[7] = test system: Bel7402-V13 sphere cells; assay: inhibition of cisplatin resistance (CCK-8 IC50 after antibody treatment); format: cell-based, human; conditions: PBS-treated Bel7402-V13 sphere cells
Experimental: (§1) Drug resistance is one of the biological features of tumor stem cells. […] Each group of cells was cultured with a medium containing 9 different concentrations, i.e., 0, 0.0625, 0.125, 0.25, 0.5, 1, 2, 4, and 8 μg/mL, of cisplatin. The complete medium containing cisplatin was replaced once every 48 hours. After 5 days, CCK-8 reagent was added according to the instructions of CCK-8 kit. OD450 absorbance values were measured, and the IC50 values for each group were calculated.

[8] = test system: SPCA-1 cells; assay: as above; format: cell-based, human; conditions: SPCA-1 control group
Experimental: as §1

[9] = test system: Hetumomab target antigen on cells; assay: cell ELISA affinity of humanized chain versions; format: binding, human; conditions: light chain mutant combined with heavy chain of Hetuximab
From the text: Based on the H1 heavy chain sequence, two other heavy chain mutants were designed as initial humanization: H2 and H3. The degree of humanization of these versions was in descending order. […] Since H1 was the most humanized version in which the framework regions were all humanized, H1 was finally determined as the preferred humanization molecular template.
Based on the L1 with fully humanized FR region, L2 and L3 were designed, and the degree of humanization of the three version was also in descending order. […] In order to find out which key amino acids were mutated during humanization, back mutations were performed, and nine different mutants (L4-L12) were prepared.
Therefore, L6, L11, and L12 were finally selected for optimization screening of the best light chain humanized version.
However, glycosylated isomers of Hetuzumab H1 heavy chain were confirmed by antibody sequence analysis and reductive electrophoresis analysis. In the analysis of H1 heavy chain expression products by electrophoresis, H1L6, H1L11, and H1L12 were all shown with weak sub-bands visible below the main band of the heavy chain. […] This may cause serious quality problems of uniformity, which is very unfavorable for drug development. […] H4 and H5 were combined with L11, respectively, and analyzed by electrophoresis after expression. […]

Molecule: N.N.[Cl][Pt][Cl] [cisplatin]
- Tumor Volume Inhibition Rate (%) [1]: 24.91%
- IC50 of cisplatin ([2]; SPCA-1 Hetumomab+ cells): 0.707 µg/mL
- IC50 of cisplatin ([2]; SPCA-1 Hetumomab− cells): 0.180 µg/mL
- IC50 of cisplatin ([2]; SPCA-1 Parental Cells): 0.513 µg/mL
- tumor volume inhibition rate ([3]; at drug withdrawal after 5 weeks): 83.5%
- tumor growth rate ([3]; month after drug withdrawal): 0.154 cm^3/day
- tumor volume inhibition rate ([3]; one month after drug withdrawal): 48.6%
- Tumor Volume Inhibition Rate (%) [4]: 33.16%
- Tumor Volume Inhibition Rate (%) [5]: 14.52%
- IC50 of cisplatin ([6]; Bel7402-V13 Hetumomab+ cells, 7 days): 0.739 µg/mL
- IC50 of cisplatin ([6]; Bel7402-V13 Hetumomab− cells): 0.313 µg/mL
- IC50 of cisplatin ([6]; Bel7402-V13 Parental Cells): 0.502 µg/mL
- IC50 of cisplatin, control group [7]: 0.9 µg/mL
- IC50 of cisplatin, control group [8]: 0.351 µg/mL

B1: L11: humanized light chain version L11 (SEQ ID NO:47), higher humanized version based on L6 (protein)
light: DIVMTQTPFSNPVTLGQPASISCRSSKSLLHSNGITYLYWFLQKPGQSPQLLIYQMSNLASGVPDRFSGSGSGTDFTLKISRVEAEDVGVYYCAQNLELYTFGQGTKVEIKRTVAAPSVFIFPPSDEQLKSGTASVVCLLNNFYPREAKVQWKVDNALQSGNSQESVTEQDSKDSTYSLSSTLTLSKADYEKHKVYACEVTHQGLSSPVTKSFNRGEC
modifications: Humanized light chain L11
- affinity by cellular ELISA [9]: close to that of L6
